What was measured:
Swiss mice = test: Exploratory activity in mice (open field); format: in vivo; settings: i.p., control 88 ± 8, n=10
Protocol: The effect of B-407 on the exploratory activity was evaluated in Swiss mice of 30 g to 40 g in an open-field of 40 cm x 40 cm x 25 cm divided in 9 quadrants. One mouse at a time was placed into the open field to assess its exploratory activity by counting the number of quadrants crossed in 4 consecutive periods of 3 minutes each.
The working protocol consisted of two experiments with 3 groups of 10 animals each. In both experiments, each group of mice were pretreated with B-407, 0 µg/kg, 30 µg/kg and 100 µg/kg five min prior to the test. In one experiment, the animals were treated, p.o., with a combination of the antispasmodics homatropine methylbromide (5 mg/kg) and papaverine (5 mg/kg) administered 10 min prior to B-407. In the other experiment, this treatment was replaced by saline solution. The two experiments were carried out at the same time.
The results were expressed as the average ± standard error of each group and the statistical significance of the differences were evaluated by means of the Student's-t-test.

[1] = tested on: isolated rat uterus under diestrous condition; test: B1: effect on isolated uterus of diestrous rat with basal spontaneous contractions (cumulative curves, Krebs solution); set-up: species or system Wistar rats; settings: basal 5,85
Protocol: (B1)- Concentration-response curves on isolated rat uterus under diestrous condition were carried out. Wistar rats weighing 250 g to 300 g were employed. The diestrous phase was detected by a daily vaginal smear. The uterus was dissected out and a portion of a horn was placed in a 10 ml organ bath in a similar way to that described in part A. The bath temperature was maintained at 37°C, bubbled with a mixture of 95 % O2 and 5 % CO2 in a Krebs nutrient solution. The organ was left to stabilize for one hour. The isolated uterus presented basal spontaneous contractions under these experimental conditions. Cumulative concentration-response curves were carried out with the addition of either 100 µl or 300 µl of solutions of either natural prostaglandins or B-407 in concentrations of 10^-10 M to 10^-6 M, each 15 minutes without any washing. Uterine contractions and quantitation were performed as described in (A). (B2)- Concentration-response curves in isolated uterus under diestrous (without any spontaneous contractions) were carried out. Sodium diclofenac was added to De Jalon nutrient solution to a final concentration of 4x10^-6 M. The organ was left to stabilize until the absence of spontaneous contractions. Non-cumulative concentration-response curves were obtained. Recordings of the contractions and their quantitation were performed as described in (A).
The frequency and magnitude of the responses were globally evaluated by calculating the total area recorded at a fixed time period as will be further explained. The areas under the curve of the recording paper, over 15 minutes periods, were cut and weighed both in the concentration-response curves and in the potentiating experiments.
The calibration was made by weighing a piece of paper which corresponded to a tension of 1 g at the working sensitivity along 2 minutes. Therefore, a relationship of area expressed in g/2 min was obtained and then the weights of the areas of the responses were transformed to unities of area. The results were expressed as the mean ± the standard error of the areas obtained. The statistical evaluation of the differences was carried out either by ANOVA or by Student's-t-test, as appropriate.

guinea pigs = test: Histamine-aerosol induced bronchoconstriction in guinea pig; format: in vivo; settings: 150 µg/kg, i.p., 5 minutes before histamine challenge; n= 8; initial 115 ± 6, final 127 ± 4
Protocol: The protective effect of B-407 on the bronchoconstriction induced by histamine aerosol in male guinea pigs weighing 700 g was evaluated. One guinea pig at a time was placed into a 15 l hermetically closed container. Then 200 µl of histamine solution (600 µg of histamine base) was sprayed with compressed air at a pressure of 1 PSI. The time at which the hypoxic symptoms (increase of breathing frequency, bronchospasm, dysnea, apnea and finally the collapse of the animal (falling down) was determined.
The working protocol comprised 3 parts: • 1) The determination of the falling down time of the guinea pigs exposed to the histamine aerosol was determined.
The results were expressed as the time in seconds elapsed before the animals fell down ["Antihistamine Agents" (Cap. 22) in: "Screening Methods in Pharmacology". Academic Press, New York (1965). Brit. J. Pharmacology. 16, 59 (1961); Arch. Intern. Pharmacodyn. 129, 77 (1960); J. Pharmacol. Exptl. Therap. 131, 73 (1961); Arch. Intern. Pharmacodyn. 115, 332 (1958); "Les Antihistaminiques de Synthése", Chapter 22, page 784 in : "Structure et activité pharmacodynamique de medicaments du systéme nerveux vegetatif". S. Karger Bale (Suisse)- New York: (1948)].

[2] = tested on: guinea pig isolated trachea; test: Relaxation of histamine contracted guinea pig tracheal chain in vitro; set-up: species or system guinea pigs; settings: 10^-5 M; percentage on the histamine (1x10^-6 M) induced contraction; n = 8; vehicle -7 ± 3
Protocol: The effect of B-407 on isolated trachea was evaluated in guinea pigs weighing 700 g. The animals were killed and the trachea was dissected out, transferred to a dish containing Krebs solution and cut transversely between the segments of cartilage, so as to give a number of rings of tracheal muscle. Five rings were tied up together with cotton threads, so as to form a chain, which was then mounted in a 10 ml bath with Krebs solution at 37°C, aerated with a mixture of oxygen (95 %) and carbon dioxide (5 %). The load on the lever was 0.4 g. The organ was left to stabilize for 15 to 30 min.
Enough quantity (100 µl) of 0.1 mM histamine solution was added to the bath (1x10^-6 M) in order to obtain a contraction of 0.2 g to 0.5 g of tension. After the contraction reached a plateau, 100 µl of ethanol: distilled water (1:1) (vehicle as control) was added to the bath. Eight minutes later, the preparation was relaxed by washing 4 to 6 times. […]
The relaxation induced by B-407 was expressed as a percentage on the histamine induced contraction. The average ± standard error of all the determinations were calculated ["The guinea-pig tracheal chain"; "Pharmacological Experiments on Isolated Preparations". […]

CCCCC(C)(O)C/C=C/[C@H]1[C@H](O)CC(=O)[C@@H]1CCCC/C=C/C(=O)OC (mixture of isomers) [B-407, trans-Δ^2-15-deoxy-16-hydroxy-16-methyl PGE1 methyl ester]
N° Quadrants/12 min (Swiss mice; 30 µg/kg): 87 ± 8
N° Quadrants/12 min (Swiss mice; 100 µg/kg, p < 0,05): 48 ± 8
Area (g of tension/2 min) ([1]; 1x10^-6 M): 6,46 g of tension/2 min
Area (g of tension/2 min) ([1]; 1x10^-7 M): 7,38 g of tension/2 min
Area (g of tension/2 min) ([1]; 1x10^-8 M): 6,88 g of tension/2 min
Area (g of tension/2 min) ([1]; 1x10^-9 M): 6,14 g of tension/2 min
Falling down time (sec) by bronchospasm (guinea pigs): 358 ± 4 s
% of relaxation [2]: 35 ± 5%

Source: patent EP0574185B1, “PGE1 analogs” (NEWPHARMA INTERNATIONAL CORPORATION, priority 1992, dated 1993)
